Experimental data: patent publication US8247211B2, “Glycopeptide antibiotics” (American Cyanamid Company, priority 2001, dated 2012)
≈ marks a conversion by molar mass, not a printed value.

Legend:
Assay in all cases: In vitro antibacterial evaluation: minimum inhibitory concentration (MIC), broth dilution method
Assay type in all cases: cell-based
Enterococcus sp. = system: Enterococcus sp.
How it was run: (§1)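 MIC by broth dilution in Mueller-Hinton II medium following NCCLS M7-A2. Inoculum was 5×10^5 CFU/mL and antibiotic was tested over 64-0.06 μg/mL. Gram-positive panel included clinical isolates resistant to methicillin, penicillin and/or vancomycin.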

Streptococcus sp. = system: Streptococcus sp.
How it was run: as §1

Staphylococcus sp. = settings: broth dilution, 18 hours at 35° C.
How it was run: as §1

Escherichia coli = system: Escherichia coli
How it was run: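 Test strains, among them recent clinical isolates carrying methicillin, penicillin and/or vancomycin resistance, were inoculated at 5×10^5 CFU/mL. A broth dilution series spanning 64-0.06 μg/mL in Muller-Hinton II […] (NCCLS M7-A2) defined the MIC as the lowest growth-inhibiting concentration.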

MIC Enterococcus faecalis (ATCC 29212) (Enterococcus sp.; strain ATCC 29212): 32 µg/mL (≈ 22 µM)
MIC Enterococcus faecalis (GC 2242) (Enterococcus sp.; strain GC 2242): 32 µg/mL (≈ 22 µM)
MIC Enterococcus faecium (GC 2243) (Enterococcus sp.; strain GC 2243): 32 µg/mL (≈ 22 µM)
MIC Enterococcus faecalis (GC 2691) (Enterococcus sp.; strain GC 2691): 32 µg/mL (≈ 22 µM)
MIC Enterococcus faecalis (GC 3059) (Enterococcus sp.; strain GC 3059): 32 µg/mL (≈ 22 µM)
MIC Enterococcus faecalis (GC 4552) (Enterococcus sp.; strain GC 4552): 32 µg/mL (≈ 22 µM)
MIC Enterococcus faecalis (GC 4553) (Enterococcus sp.; strain GC 4553): 64 µg/mL (≈ 43.9 µM)
MIC Enterococcus faecalis (GC 4554) (Enterococcus sp.; strain GC 4554): 32 µg/mL (≈ 22 µM)
MIC Enterococcus faecium (GC 4556) (Enterococcus sp.; strain GC 4556): 32 µg/mL (≈ 22 µM)
MIC Enterococcus faecium (GC 4557) (Enterococcus sp.; strain GC 4557): 16 µg/mL (≈ 11 µM)
MIC Enterococcus avium (GC 4558) (Enterococcus sp.; strain GC 4558): 32 µg/mL (≈ 22 µM)
MIC Enterococcus faecalis (GC 6189) (Enterococcus sp.; strain GC 6189): 32 µg/mL (≈ 22 µM)
MIC Streptococcus pneumoniae (ATCC 6301) (Streptococcus sp.; strain ATCC 6301): 2 µg/mL (≈ 1.37 µM)
MIC Streptococcus pneumoniae (GC 1894) (Streptococcus sp.; strain GC 1894): 0.5 µg/mL (≈ 0.343 µM)
MIC Streptococcus pyogenes (GC 4563) (Streptococcus sp.; strain GC 4563): 4 µg/mL (≈ 2.74 µM)
MIC Streptococcus agalactiae (GC 4564) (Streptococcus sp.; strain GC 4564): 8 µg/mL (≈ 5.49 µM)
MIC Streptococcus pneumoniae (GC 4565) (Streptococcus sp.; strain GC 4565): 2 µg/mL (≈ 1.37 µM)
MIC Coagulase Negative Staphylococcus (GC 4547) (Staphylococcus sp.; 5×10^5 CFU/mL): 8 µg/mL (≈ 5.49 µM)
MIC Coagulase Negative Staphylococcus (GC 4548) (Staphylococcus sp.; 5×10^5 CFU/mL): 8 µg/mL (≈ 5.49 µM)
MIC Coagulase Negative Staphylococcus (GC 4549) (Staphylococcus sp.; 5×10^5 CFU/mL): 8 µg/mL (≈ 5.49 µM)
MIC Coagulase Negative Staphylococcus (GC 4551) (Staphylococcus sp.; 5×10^5 CFU/mL): 16 µg/mL (≈ 11 µM)
MIC Coagulase Negative Staphylococcus (GC 6257) (Staphylococcus sp.; 5×10^5 CFU/mL): 8 µg/mL (≈ 5.49 µM)
MIC Staphylococcus aureus (ATCC 29213) (Staphylococcus sp.; 5×10^5 CFU/mL): 16 µg/mL (≈ 11 µM)
MIC Staphylococcus aureus (GC 1131) (Staphylococcus sp.; 5×10^5 CFU/mL): 16 µg/mL (≈ 11 µM)
MIC Staphylococcus aureus (GC 3051) (Staphylococcus sp.; 5×10^5 CFU/mL): 16 µg/mL (≈ 11 µM)
MIC Staphylococcus aureus (GC 3053) (Staphylococcus sp.; 5×10^5 CFU/mL): 32 µg/mL (≈ 22 µM)
MIC Staphylococcus aureus (GC 4541) (Staphylococcus sp.; 5×10^5 CFU/mL): 16 µg/mL (≈ 11 µM)
MIC Staphylococcus aureus (GC 4542) (Staphylococcus sp.; 5×10^5 CFU/mL): 16 µg/mL (≈ 11 µM)
MIC Staphylococcus aureus (GC 4544) (Staphylococcus sp.; 5×10^5 CFU/mL): 16 µg/mL (≈ 11 µM)
MIC Staphylococcus aureus (GC 4545) (Staphylococcus sp.; 5×10^5 CFU/mL): 8 µg/mL (≈ 5.49 µM)
MIC Staphylococcus aureus-SMITH (GC 4543) (Staphylococcus sp.; 5×10^5 CFU/mL): 8 µg/mL (≈ 5.49 µM)
MIC Staphylococcus aureus (ATCC 29213) (Staphylococcus sp.; strain ATCC 29213): 16 µg/mL (≈ 11 µM)
MIC Staphylococcus aureus (GC 1131) (Staphylococcus sp.; strain GC 1131): 16 µg/mL (≈ 11 µM)
MIC Staphylococcus aureus (GC 3051) (Staphylococcus sp.; strain GC 3051): 16 µg/mL (≈ 11 µM)
MIC Staphylococcus aureus (GC 3053) (Staphylococcus sp.; strain GC 3053): 32 µg/mL (≈ 22 µM)
MIC Staphylococcus aureus (GC 4541) (Staphylococcus sp.; strain GC 4541): 16 µg/mL (≈ 11 µM)
MIC Staphylococcus aureus (GC 4542) (Staphylococcus sp.; strain GC 4542): 16 µg/mL (≈ 11 µM)
MIC Staphylococcus aureus-SMITH (GC 4543) (Staphylococcus sp.; strain GC 4543): 8 µg/mL (≈ 5.49 µM)
MIC Staphylococcus aureus (GC 4544) (Staphylococcus sp.; strain GC 4544): 16 µg/mL (≈ 11 µM)
MIC Staphylococcus aureus (GC 4545) (Staphylococcus sp.; strain GC 4545): 8 µg/mL (≈ 5.49 µM)
MIC Coagulase Negative Staphylococcus (GC 4547) (Staphylococcus sp.; strain GC 4547): 8 µg/mL (≈ 5.49 µM)
MIC Coagulase Negative Staphylococcus (GC 4548) (Staphylococcus sp.; strain GC 4548): 8 µg/mL (≈ 5.49 µM)
MIC Coagulase Negative Staphylococcus (GC 4549) (Staphylococcus sp.; strain GC 4549): 8 µg/mL (≈ 5.49 µM)
MIC Coagulase Negative Staphylococcus (GC 4551) (Staphylococcus sp.; strain GC 4551): 16 µg/mL (≈ 11 µM)
MIC Coagulase Negative Staphylococcus (GC 6257) (Staphylococcus sp.; strain GC 6257): 8 µg/mL (≈ 5.49 µM)
MIC Escherichia coli (ATCC 25922) (Escherichia coli; strain ATCC 25922): >64 µg/mL
MIC Escherichia coli (GC 4559) (Escherichia coli; strain GC 4559): >64 µg/mL
MIC Escherichi coli (GC 4560) (Escherichia coli; strain GC 4560): 8 µg/mL (≈ 5.49 µM)
Compound: CCOc1cc(C2OCC3OC(OC4C(CO)OC(Oc5ccc(CC6NC(=O)C(C(C)c7ccccc7)NC(=O)CNC(=O)C(CO)NC(=O)C(C(O)C7CNC(=N)N7C7OC(CO)C(O)C(O)C7O)NC(=O)C(C(O)C7CNC(=N)N7)NC6=O)cc5)C(O)C4O)C(O)C(O)C3O2)ccc1OC (stereo not drawn) [Example 152, Cyclo[glycyl-β-methylphenylalanyl-O-[4-O-[4,6-O-(3-ethoxy-4-methoxybenzylidene)hexopyranosyl)hexopyranosyl]tyrosyl-3-(2-iminoimidazolidin-4-yl)seryl-3-(3-hexopyranosyl-2-iminoimidazolidin-4-yl)serylseryl]]
MIC Staphylococcus haemolyticus (GC 4546) (Staphylococcus sp.; 5×10^5 CFU/mL): 8 µg/mL (≈ 5.49 µM)
MIC Staphylococcus haemolyticus (GC 4546) (Staphylococcus sp.; strain GC 4546): 8 µg/mL (≈ 5.49 µM)
